Reference: patent publication US8361998B2, “Compounds and their use as IKACh blockers” (AstraZeneca AB, priority 2010, dated 2013)

These molecules were tested against T1, human cardiac ion channel proteins hKir3.1/Kir3.4 (Homo sapiens, UniProt P48544+P48549) (assay: Atomic Absorption Screening (AAS) Rb efflux assay of hKir3.1/Kir3.4 block, carbachol/high K+ stimulated, 10-pt or 7-pt CR). Conditions: 7-pt CR (0.037 to 27 μmol/L), AAS Rb efflux, CHO-K1 cells expressing hKir3.1/Kir3.4; mean of >3 replicates; read-out: IKACh IC50 7-pt CR, AAS.
T1 construct: expressed in transfected cells
T1 sequence (P48549 1-501): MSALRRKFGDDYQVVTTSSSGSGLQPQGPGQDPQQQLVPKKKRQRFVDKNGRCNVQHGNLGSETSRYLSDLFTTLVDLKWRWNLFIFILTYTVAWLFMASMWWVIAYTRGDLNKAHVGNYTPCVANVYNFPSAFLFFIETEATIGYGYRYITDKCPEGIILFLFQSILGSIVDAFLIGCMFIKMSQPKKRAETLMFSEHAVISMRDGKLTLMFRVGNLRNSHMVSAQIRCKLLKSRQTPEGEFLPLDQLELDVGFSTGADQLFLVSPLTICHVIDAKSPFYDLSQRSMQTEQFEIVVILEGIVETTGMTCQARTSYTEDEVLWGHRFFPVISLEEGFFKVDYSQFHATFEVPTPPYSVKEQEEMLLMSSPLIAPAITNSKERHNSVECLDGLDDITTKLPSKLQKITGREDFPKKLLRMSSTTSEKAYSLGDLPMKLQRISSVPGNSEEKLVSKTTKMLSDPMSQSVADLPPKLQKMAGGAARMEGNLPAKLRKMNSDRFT
T1 sequence (P48544 1-419): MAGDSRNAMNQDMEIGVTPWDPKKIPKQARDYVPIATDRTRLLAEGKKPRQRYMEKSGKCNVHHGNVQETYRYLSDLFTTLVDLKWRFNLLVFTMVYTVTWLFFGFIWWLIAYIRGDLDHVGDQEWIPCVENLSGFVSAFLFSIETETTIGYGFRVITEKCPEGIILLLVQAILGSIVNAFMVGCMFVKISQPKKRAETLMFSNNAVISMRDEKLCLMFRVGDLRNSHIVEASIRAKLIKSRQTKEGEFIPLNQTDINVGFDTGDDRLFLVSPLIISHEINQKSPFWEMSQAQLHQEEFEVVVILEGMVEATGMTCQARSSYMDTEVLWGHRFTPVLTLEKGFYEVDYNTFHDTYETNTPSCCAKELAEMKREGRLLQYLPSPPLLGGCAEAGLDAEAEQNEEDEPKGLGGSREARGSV
Format: cell-based
Text: Human KCNJ3 encoding Kir3.1 (Genbank acc. No. NM_002239) was inserted between EcoRI and NotI in the pIRESneo3 vector (Clontech Laboratories, Inc. CA, USA). Human KCNJ5 encoding Kir3.4 (Genbank Acc. No. BC069482) was inserted between EcoR1 and Not1 in the pIRESpuro3 vector (Clontech Laboratories, Inc. CA, USA). A Kozak sequence (GCCACC) was introduced before the start codon ATG of both constructs. Chinese Hamster Ovary K1, CHO-FLP/IN, cells (Invitrogen Corporation, Paisley, UK) were transfected simultaneously using Lipofectamine 2000 reagent (Invitrogen Corporation, Paisley, UK). Geneticin 600 μg/mL (Invitrogen Corporation, Paisley, UK) and puromycin 3 μg/mL (BD Bioscience) were added to the cell culture medium 3 days after transfection. Two weeks after transfection, colonies had appeared and were manually picked and sorted to one cell per well in a 96-well plate. Cells were then tested for Kir3.1 and Kir3.4 expression using membrane potential assay, Western Blot and Immunocytochemistry. […] The cell line was re-sorted by flow cytometry and resulting clones were assayed electrophysiologically using IonWorks (Molecular Devices) and later validated on the Q-Patch (Sophion A/S).
The stable cell line was cultured in DMEM/F12 with Glutamax 1 (Invitrogen Corporation, Paisley, UK), supplemented with foetal bovine serum 10%, puromycin 3 μg/mL, hygromycin 300 μg/mL and geneticin 600 μg/mL (Invitrogen Corporation, Paisley, UK). Care was taken not to seed cells at too low density and cells were passaged at approximately 70-80% confluency. Cells used for patch-clamp experiments were prepared by washing using PBS (—Mg, —Ca^2+), 2 times, detached using Accutase (Sigma). For Q-Patch measurements, storage medium was prepared fresh by adding 1.25 mL of 1M Hepes (GibcoBRL) to 50 mL CHO-SFM II medium (GibcoBRL) and detached cells were diluted to 2 million cells/mL in this medium. Frozen (Cryopreserved) cells were used for Atomic Absorption Screening (AAS) and plated poly-D-lysine 384-well plates (Greiner) at a density of 11,000-13,000 cells/well, the day before assay.
The blocking effects of compounds on the human cardiac ion channel proteins hKir3.1/Kir3.4 were assessed in CHO-K1 cells stably expressing the channel proteins using Atomic Absorption Screening (AAS). Cells were washed and then loaded with 25 μL Rb-loading buffer for three hours at 37° C. After that, the cells were washed again and 25 μL of diluted compound was transferred to the cell plate, incubated for 5 min in RT, and then […] of Carbachol/high K+ (10 μM carbachol and 20 mM KCl final concentration) buffer added to stimulate the cells and open the Kir3.1/Kir3.4 channel. After 10 min stimulation, […] of the supernatant was transferred to a new microplate, 45 μL washing buffer added to the supernatant and the level of Rb in the supernatant was then measured using an Aurora ICR 8000. Compounds were studied at concentrations ranging from 0.003 to 67 μmol/L (dilutions by three, 10-pt CR) or from 0.037 to 27 μmol/L (dilutions by three, 7-pt CR).
Stock solutions of compounds were prepared in DMSO 10 mM and stored at RT. Buffers used for AAS contained (in mM): HEPES 20, NaCl 150, MgCl2 1.0, CaCl2 2.0 and NaH2PO4 0.8 and Glucose 10 (wash 1) or KCl 5 and Glucose 5 (wash 2) or KCl 5 (dilution buffer). The High K^+ channel opener buffer contained (in mM): HEPES 20, NaCl 130, MgCl2 1.0, CaCl2 2.0 and NaH2PO4 0.8 together with KCl 20. Solutions used for Q-Patch (extracellular) in mM: NaCl 145, KCl 4, CaCl2 2.0, MgCl2 1.0, HEPES 10 and glucose 10. The high K^+ extra cellular solution used for Q-Patch in mM: NaCl 96.7, KCl 50.7, CaCl2 2.0, MgCl2 1.0, HEPES 10 and glucose 10 while the intra cellular solution used was (in mM): KCl 120, CaCl2 5.374, MgCl2 1.75, EGTA 10, KOH 3.125, HEPES 10, Na2ATP 4.
Results are given as mean IC50 of >4 replicates (10-pt CR, AAS) or >3 replicates (7-pt CR, AAS). Some of the data in Table 1 are mean values of two or more runs. […]

IC50 | Structure (SMILES)
6 µM | CC(C)[C@@H](CN1CCCC1)N(C)C(=O)c1ccccc1OC(F)F [Example 16.54, (S)-2-(Difluoromethoxy)-N-methyl-N-(3-methyl-1-(pyrrolidin-1-yl)butan-2-yl)benzamide]
14 µM | CC(C)[C@@H](CN1CCCC1)N(C)C(=O)c1c(F)cccc1C(F)(F)F [Example 16.19, (S)-2-Fluoro-N-methyl-N-(3-methyl-1-(pyrrolidin-1-yl)butan-2-yl)-6-(trifluoromethyl)benzamide]
18 µM | CC(C)[C@H](CN1CCCC1)N(C)C(=O)c1ccc(Cl)cc1F [Example 16.59, (R)-4-Chloro-2-fluoro-N-methyl-N-(3-methyl-1-(pyrrolidin-1-yl)butan-2-yl)benzamide]
3.2 µM | CC(C)[C@@H](CN1CCCC1)N(C)C(=O)c1ccc(Br)c(F)c1 [Example 16.52, (S)-4-Bromo-3-fluoro-N-methyl-N-(3-methyl-1-(pyrrolidin-1-yl)butan-2-yl)benzamide]

Same assay, conditions: 10-pt CR (0.003 to 67 μmol/L), AAS Rb efflux, CHO-K1 cells expressing hKir3.1/Kir3.4; mean of >4 replicates; read-out: IKACh IC50 10-pt CR, AAS

IC50 | Structure (SMILES)
9.1 µM | CC(C)[C@@H](CN1CCCC1)N(C)C(=O)c1ccccc1OC(F)F [Example 16.54, (S)-2-(Difluoromethoxy)-N-methyl-N-(3-methyl-1-(pyrrolidin-1-yl)butan-2-yl)benzamide]
8.6 µM | CCC[C@@H](CN1CC(O)C1)N(C)C(=O)c1ccc(C#N)cc1 [Example 8.9, (S)-4-Cyano-N-(1-(3-hydroxyazetidin-1-yl)pentan-2-yl)-N-methylbenzamide]
1.4 µM | CN(C(=O)c1ccc(F)cc1)[C@H](CN1CC(O)C1)C1CCCCC1 [Example 36.7, N-[(1S)-1-Cyclohexyl-2-(3-hydroxyazetidin-1-yl)ethyl]-4-fluoro-N-methylbenzamide]
0.33 µM | CCC[C@@H](CN1CC(OC(C)C)C1)N(C)C(=O)c1ccc(Cl)cc1 [Example 31.4, 4-chloro-N-methyl-N-{(25)-1-[3-(propan-2-yloxy)azetidin-1-yl]pentan-2-yl}benzamide]
2.7 µM | CC(C)[C@@H](CN1CC[C@@H](O)C1)N(C)C(=O)c1ccc(Br)cc1 [Example 17.5, 4-Bromo-N—((S)-1-((R)-3-hydroxypyrrolidin-1-yl)-3-methylbutan-2-yl)-N-methylbenzamide]
0.58 µM | CCC[C@@H](CN1CC(O)C1)N(C)C(=O)c1ccc(F)c(C(F)(F)F)c1 [Example 8.5, (S)-4-Fluoro-N-(1-(3-hydroxyazetidin-1-yl)pentan-2-yl)-N-methyl-3-(trifluoromethyl)benzamide]
17 µM | CC(C)[C@@H](CN1CC[C@@H](O)C1)N(C)C(=O)c1ccc(Cl)cc1 [Example 17.4, 4-Chloro-N—((S)-1-((R)-3-hydroxypyrrolidin-1-yl)-3-methylbutan-2-yl)-N-methylbenzamide]
15 µM | CC(C)[C@@H](CN1CCCC(F)(F)C1)N(C)C(=O)c1ccc(F)c(C(F)(F)F)c1 [Example 16.2, (S)—N-(1-(3,3-Difluoropiperidin-1-yl)-3-methylbutan-2-yl)-4-fluoro-N-methyl-3-(trifluoromethyl)benzamide]
0.16 µM | CN(C(=O)c1ccc(F)cc1)[C@H](CN1CC(O)C1)C1CCC1 [Example 39.13, (S)—N-(1-Cyclobutyl-2-(3-hydroxyazetidin-1-yl)ethyl)-4-fluoro-N-methylbenzamide]
0.2 µM | CCC[C@@H](CN1CC(O)C1)N(C)C(=O)c1ccc(Cl)c(C)c1 [Example 8.4, (S)-4-Chloro-N-(1-(3-hydroxyazetidin-1-yl)pentan-2-yl)-N,3-di-methylbenzamide]
2.3 µM | CN(C(=O)c1ccc(F)cc1Cl)C(CN1CC(O)C1)C1CCCC1 (single isomer, unassigned) [32.6, isomer 2]

The next lines start with the molecule.

Structure (SMILES) | IC50
CN(C(=O)c1ccc(Br)cc1)[C@H](CN1CCCC1)C1CC1 [Example 3.15, (S)-4-Bromo-N-(1-cyclopropyl-2-(pyrrolidin-1-yl)ethyl)-N-methylbenzamide] | 3.8 µM
CO[C@H](C)[C@@H](CN1CCCC1)N(C)C(=O)c1ccc(Br)cc1 [Example 3.4, 4-Bromo-N-((2R,3R)-3-methoxy-1-(pyrrolidin-1-yl)butan-2-yl)-N-methylbenzamide] | 2.2 µM
COC[C@@H]1CCCN1C[C@H](C(C)C)N(C)C(=O)c1ccc(Br)cc1 [Example 3.20, 4-Bromo-N-((S)-1-((S)-2-(methoxymethyl)pyrrolidin-1-yl)-3-methylbutan-2-yl)-N-methylbenzamide] | 8.4 µM
Cc1cc(C(=O)N(C)[C@](C)(CN2CC(O)C2)C(C)C)ccc1F [Example 22, (S)-4-Fluoro-N-(1-(3-hydroxyazetidin-1-yl)-2,3-dimethylbutan-2-yl)-N,3-dimethylbenzamide] | 19 µM
Cc1cc(C(=O)N(C)[C@H](CN2CC(F)C2)C(C)C)ccc1F [Example 1.5, (S)-4-Fluoro-N-(1-(3-fluoroazetidin-1-yl)-3-methylbutan-2-yl)-N,3-dimethylbenzamide] | 12 µM
CCC[C@@H](CN1CCC1)N(C)C(=O)c1ccc(Cl)cc1Cl [Example 1.1, (S)—N-(1-(Azetidin-1-yl)pentan-2-yl)-2,4-dichloro-N-methylbenzamide] | 2.3 µM
CC[C@@H](CN1CCCC1)N(C)C(=O)c1ccc(Br)cc1 [Example 17.1, (S)-4-Bromo-N-methyl-N-(1-(pyrrolidin-1-yl)butan-2-yl)benzamide] | 12 µM

Same assay, conditions: printed as IC50 >67 μM in the 10-pt CR assay or IC50 >27 μM in the 7-pt CR assay; assay format per compound not stated; read-out: IC50

Structure (SMILES) | IC50
CC(C)[C@H](CN1CCCC1)N(C)C(=O)c1ccc(F)c(Cl)c1 [3-Chloro-4-fluoro-N-methyl-N-[(1R)-2-methyl-1-(pyrrolidin-1-ylmethyl)propyl]benzamide] | > 27 µM
